Assay [1] relates to DOI-induced headshakes in male NIH Swiss mice. The assay is described as follows: DOI-Induced Headshake Model. It is filed as in vivo. As to conditions: for % Inhibition (% Inh.) of DOI-induced headshakes: 45 min before DOI 5 mg/kg ip, percent suppression compared to vehicle group; for maximal suppression of DOI-induced headshakes: at the 100 mg/kg dose, oral, DOI 5 mg/kg ip. As to the method: DOI-Induced Headshake Model
The administration of DOI to rodents has been used as a model for assessing potential efficacy of an atypical antipsychotic in treating psychosis and schizophrenia in certain patient populations with direct or indirect defects in the serotonin system.
Male NIH Swiss mice weighing 18-21 grams at the time of purchase were obtained from Harlan Sprague Dawley, Inc. (Prattville, Ala.). They were individually housed in wire-mesh cages at an ambient temperature of 21 to 23° C. with an automated 12/12 hour light/dark cycle. All […] had free access to 5001 Rodent Chow (Purina Mills, Brentwood, Mo.) and water except during experimental sessions. The principles of laboratory animal care (NIH publication No. 85-23, revised 1985) were followed.
DOI (purchased from Sigma, St. Louis, Mo.) was dissolved in saline, neutralized to pH ˜7.4 and injected ip in a volume of 10 ml/kg body weight. Injection solution was freshly prepared 30-45 minutes before each experiment. Methylcellulose (0.5%, Sigma) was used as oral dosing vehicle. All experiments were performed between 10 am and 4 pm during the day. The mice were fasted the evening before the experiment.
An enantiomer of Formula (Ib), Formula (IIb) or vehicle was orally administered at various concentrations ranging from 10 μg to 100 mg/kg. The animals were then injected with either saline or DOI (ip, 5 mg/kg) 45 minutes after the administration of either vehicle or an enantiomer of Formula (Ib) or Formula (IIb). Immediately upon DOI administration, the mice were placed in isolated observation cylinders made of a clear polycarbonate (27 cm in diameter and 55 cm deep). The number of randomized headshakes (or twitches) was recorded by an experienced observer using a hand held mechanical counter. Headshake responses were counted in consecutive 10-min periods.
DOI-Induced Headshake Model Analysis
All data are expressed as the mean ±SEM. The average of the headshakes in the vehicle group was expressed as 100%. The DOI-induced headshakes in groups treated with an enantiomer of Formula (Ib) and Formula (IIb) were expressed as percent suppression compared to the vehicle group. Statistical analysis for significant differences was done with the Student t test.

Assay [2] has as its system PPI-disruptive effects of PCP in Sprague-Dawley-derived male rats. The assay is described as follows: Pre-Pulse Inhibition Model (PCP-disrupted PPI). It is filed as in vivo. An excerpt: Pre-Pulse Inhibition Model
The restorative effect of an enantiomer of Formula (Ib) on Pre-Pulse Inhibition (PPI) was compared to the disruptive PPI effect of phencyclidine (PCP). PCP is a NMDA antagonist having a wide range of psychotominetic effects in humans. The PPI disruption caused by PCP can be restored by some atypical antipsychotics, such as clozapine, olanzapine, and quetiapine.
Sprague-Dawley-derived male rats were housed in groups of two or three and maintained in a temperature-controlled environment on a 12 h:12 h light cycle. Except during behavioral testing, animals were given free access to food and water. Animals were handled daily for several days to desensitize them to handling stress before behavioral analysis.
An SR-LAB Startle System was used to control auditory stimuli and background noise level and to monitor startle response (±one msec). The average amplitude of the response was the main dependent variable used. Animals (n=20) were grouped according to a baseline mean PPI determined in a brief matching session. Baseline mean PPI testing consisted of 12 noise bursts at 118 dB[A] over a 40 msec time period followed by 3 noise bursts at 12 dB[A] over a 40 msec time period two days before testing with drug. […]
Data were collected online simultaneously from multiple startle chambers and analyzed using the Statview 5.0 statistical package.

The results in this text go back to patent US6541513B2, “Carbamate compounds for use in preventing or treating psychotic disorders” (Ortho-McNeil Pharmaceutical, Inc., priority 2001, dated 2003).

`NC(=O)OC[C@H](OC(N)=O)c1ccccc1Cl` [Formula (IIb)]: the “% Inhibition (% Inh.) of DOI-induced headshakes” value was 1% in assay [1] (0.01 mg/Kg oral); 11% in assay [1] (0.1 mg/Kg oral); 4% in assay [1] (1 mg/Kg oral); 41% in assay [1] (10 mg/Kg oral); 36% in assay [1] (30 mg/Kg oral); 43% in assay [1] (100 mg/Kg oral). Besides, the “maximal suppression of DOI-induced headshakes” value in assay [1] is on record as 43%.
For the compound `NC(=O)OC[C@@H](O)c1ccccc1Cl` [Formula (Ib)], the “dose-dependent reduction in startle magnitude” value in assay [2] (5, 15 and 45 mg/kg p.o.) is given as “lacked an orderly dose-dependent reduction in startle magnitude”. For the same compound, the “block of the PPI-disruptive effects of PCP” value in assay [2] (acute treatment 5, 15 and 45 mg/kg p.o., 110 min before PCP 1.5 mg/kg s.c.) is “failed to significantly block the PPI-disruptive effects of PCP”. Further, the “% Inhibition (% Inh.) of DOI-induced headshakes” value is 11% in assay [1] (0.01 mg/Kg oral); 20% in assay [1] (0.1 mg/Kg oral); 41% in assay [1] (1 mg/Kg oral); 63% in assay [1] (10 mg/Kg oral); 58% in assay [1] (30 mg/Kg oral); 76% in assay [1] (100 mg/Kg oral). Also, in assay [1], the “maximal suppression of DOI-induced headshakes” value came to 76%.
